This is an account of results in patent US10272133B2, “Compositions and methods for treating and preventing hyperlipidemia, fatty liver, atherosclerosis and other disorders associated with metabolic syndrome” (VANDERBILT UNIVERSITY, priority 2011, dated 2019).

≈ marks a conversion by molar mass, not a printed value. Read-outs that look alike come from different tables or passages of the source. Bridge positions count the residues as written; N and C are the ends. Ends that are not written are not given here. Peptide text beside a SMILES is read from it.

In data set [1] the target is T1, importin beta (Homo sapiens, UniProt Q14974). The data set is described as follows: Importins pull-down assay, Jurkat T cell extract. Also on record: whole cell extract from unstimulated human Jurkat T cells; endogenous in cells; host or cells: human Jurkat T cells, whole-cell extract. The format is binding. The note with it: biotinylated peptide, Jurkat T cell lysate pull-down. On the procedure:
(§1) Cell-penetrating peptide cSN50.1 (2986 Da) and other peptides listed in Table 1 were synthesized and prepared as previously described (Liu, D., et al., (2009) Mol Ther 17, 796-802). Biotinylated NTM peptides and their constituent modules were prepared in the same manner, with biotin added to the amino terminus at the last step of synthesis. When necessary, a 5-7 hydrophilic amino acid tag was added to peptide modules to facilitate solubility. For i.p. administration, 200 μl aliquots containing 0.4 or 0.7 mg of cSN50.1 in saline was injected at 8 h or 12 h intervals. Alternatively, 10 mg cSN50.1 in 100 μl sterile H2O was administered subcutaneously from ALZET Osmotic Pumps (1007D) placed aseptically in interscapular areas. A bolus of 0.7 mg cSN50.1 in 100 μl saline was administered i.p. at weekly pump changes to assure steady NTM bioavailability. Dosage schedules were developed based on previous experimental protocols and half-life studies. Control mice received sterile saline in the same volumes as NTM. Importins pull-down assay. Ten nmols of biotinylated NTM peptides or their constituent modules depicted in Table 1 (SN50, cSN50.1, N50, cN50.1, SSHR-1, SSHR-2) were incubated overnight at 4° C. with 1.5 mg of whole cell extract from unstimulated human Jurkat T cells or serum-starved human HepG2 cells lysed in binding buffer (10 mM HEPES at pH 7.9, 150 mM NaCl, 10 mM KCl, 2.5 mM MgCl2, 1 mM EGTA, 1 mM DTT, 0.1% NP-40, 1% protease inhibitor cocktail). Lysate was cleared by centrifugation (16,000×g for 30 min at 4° C.) and transferred to a fresh tube containing high capacity Neutravidin beads (Thermo Scientific). After 4 h, beads were separated from lysate/peptide mixture by centrifugation (30 s at 1,000×g) and washed 3 times with binding buffer and 2 times with PBS. Beads were boiled for 10 min in SDS loading buffer, and protein content was analyzed by immunoblotting with a panel of anti-importins alpha and beta antibodies and anti-GAPDH (Abcam) as a cellular protein control.

For data set [2], the system named is importins alpha 1, 4, and 5. The data set is described as follows: Importins pull-down assay, Jurkat T cell extract. Format: binding, human. The note with it: biotinylated peptide, Jurkat T cell lysate pull-down. On the procedure:
as §1

Data set [3] in a line: Solubility of peptides. The format is physicochemical.
Data set [4] has as its system ldlr−/− mice fed a Western diet. The data set can be described thus: Hyperlipidemia, fatty liver, hyperglycemia and weight gain in ldlr-/- mice fed a Western diet. The format is in vivo, mouse. Here is the method: (§2) Cell-penetrating peptide cSN50.1 (2986 Da) and other peptides listed in Table 1 were synthesized and prepared as previously described (Liu, D., et al., (2009) Mol Ther 17, 796-802). Biotinylated NTM peptides and their constituent modules were prepared in the same manner, with biotin added to the amino terminus at the last step of synthesis. When necessary, a 5-7 hydrophilic amino acid tag was added to peptide modules to facilitate solubility. For i.p. administration, 200 μl aliquots containing 0.4 or 0.7 mg of cSN50.1 in saline was injected at 8 h or 12 h intervals. Alternatively, 10 mg cSN50.1 in 100 μl sterile H2O was administered subcutaneously from ALZET Osmotic Pumps (1007D) placed aseptically in interscapular areas. A bolus of 0.7 mg cSN50.1 in 100 μl saline was administered i.p. at weekly pump changes to assure steady NTM bioavailability. Dosage schedules were developed based on previous experimental protocols and half-life studies. Control mice received sterile saline in the same volumes as NTM. Importins pull-down assay. […] Beads were boiled for 10 min in SDS loading buffer, and protein content was analyzed by immunoblotting with a panel of anti-importins alpha and beta antibodies and anti-GAPDH (Abcam) as a cellular protein control.
Six week old B6.129S7-Ldlrtm1Her/J female mice were purchased from Jackson Laboratories. […] Blood chemistries were determined in fasting mouse plasma using an automated chemistry analyzer in the Vanderbilt Clinical Research Center. Total cholesterol and triglycerides in liver and cholesterol in feces were analyzed by standard methods in the Lipid Core Laboratory. […] Cryostat sections of livers were stained with Oil-red-O. Atherosclerotic lesions and macrophages were analyzed in the aortic root by staining with Oil-red-O and MOMA-2, respectively. Average lesion area was determined using Imaging System KS300 2.0.

Data set [5] concerns the target T1, importin beta. The data set can be described thus: Importins pull-down assay, HepG2 cell extract. Also on record: endogenous in cells. As to conditions: HepG2 cell extracts. Format: binding. Here is the method:
as §2, with “control. […]” for “control.”

The target in data set [6] is T2, GAPDH (Homo sapiens, UniProt P04406). The data set can be described thus: Importins pull-down assay, HepG2 cell extract, control protein. As to conditions: HepG2 cell extracts. Format: binding. More on the design: endogenous in cells; host or cells: human hepatoma HepG2 cells, starved overnight in 1% FBS, whole-cell extract. Here is the method:
as §2, with “control. […]” for “control.”

The target of data set [7] is T1, importin beta. The data set can be described thus: Nuclear Transport Modifier/importin beta competition binding assay. More on the design: whole cell extract from unstimulated human Jurkat T cells; endogenous in cells; host or cells: human Jurkat T cells, whole-cell extract. As to conditions: free non-biotinylated peptide 0-300 μM, Jurkat T cell extract. On the procedure: Non-biotinylated SN50 peptide (at 0, 10, 30, 100 or 300 μM concentrations) was incubated overnight with 1 mg of human Jurkat T cell whole-cell extract at 4° C. Simultaneously, biotinylated SN50 peptide (10 nmols) was immobilized on high capacity Neutravidin beads at 4° C. overnight, then washed 3 times with PBS and 1 time with binding buffer to remove unbound biotinylated SN50. Binding mixture was precleared by centrifugation (16,000×g for 30 min at 4° C.) and transferred to a fresh tube containing washed high capacity Neutravidin beads complexed with immobilized biotinylated SN50 peptide. Immunoblot analysis of importin beta bound to beads was performed as described in the importins pull-down assay.

Data set [8] deals with T2, GAPDH. The data set is described as follows: Importins pull-down assay, Jurkat T cell extract, control protein. As to conditions: biotinylated peptide, Jurkat T cell lysate pull-down. Format: binding. More on the design: endogenous in cells. Here is the method:
as §2

Data set [9] deals with ldlr−/− mice. The data set can be described thus: General safety in ldlr-/- mice (blood cells, blood chemistries, infection). The format is in vivo, mouse. On the procedure:
Six week old B6.129S7-Ldlrtm1Her/J female mice were purchased from Jackson Laboratories. Mice were fed a Western diet containing 21% milk fat and 0.15% cholesterol and maintained according to the guidelines for use and care of laboratory animals approved by the Vanderbilt University Institutional Animal Care and Use Committee. Mice and food were weighed at the beginning and end of each experiment. Blood chemistries were determined in fasting mouse plasma using an automated chemistry analyzer in the Vanderbilt Clinical Research Center. Total cholesterol and triglycerides in liver and cholesterol in feces were analyzed by standard methods in the Lipid Core Laboratory. Complete blood cell counts were performed in the Clinical Hematology Laboratory and flow cytometry analysis of lymphocytes subsets was. Cryostat sections of livers were stained with Oil-red-O. Atherosclerotic lesions and macrophages were analyzed in the aortic root by staining with Oil-red-O and MOMA-2, respectively. Average lesion area was determined using Imaging System KS300 2.0.

T1 sequence (Q14974 whole entry): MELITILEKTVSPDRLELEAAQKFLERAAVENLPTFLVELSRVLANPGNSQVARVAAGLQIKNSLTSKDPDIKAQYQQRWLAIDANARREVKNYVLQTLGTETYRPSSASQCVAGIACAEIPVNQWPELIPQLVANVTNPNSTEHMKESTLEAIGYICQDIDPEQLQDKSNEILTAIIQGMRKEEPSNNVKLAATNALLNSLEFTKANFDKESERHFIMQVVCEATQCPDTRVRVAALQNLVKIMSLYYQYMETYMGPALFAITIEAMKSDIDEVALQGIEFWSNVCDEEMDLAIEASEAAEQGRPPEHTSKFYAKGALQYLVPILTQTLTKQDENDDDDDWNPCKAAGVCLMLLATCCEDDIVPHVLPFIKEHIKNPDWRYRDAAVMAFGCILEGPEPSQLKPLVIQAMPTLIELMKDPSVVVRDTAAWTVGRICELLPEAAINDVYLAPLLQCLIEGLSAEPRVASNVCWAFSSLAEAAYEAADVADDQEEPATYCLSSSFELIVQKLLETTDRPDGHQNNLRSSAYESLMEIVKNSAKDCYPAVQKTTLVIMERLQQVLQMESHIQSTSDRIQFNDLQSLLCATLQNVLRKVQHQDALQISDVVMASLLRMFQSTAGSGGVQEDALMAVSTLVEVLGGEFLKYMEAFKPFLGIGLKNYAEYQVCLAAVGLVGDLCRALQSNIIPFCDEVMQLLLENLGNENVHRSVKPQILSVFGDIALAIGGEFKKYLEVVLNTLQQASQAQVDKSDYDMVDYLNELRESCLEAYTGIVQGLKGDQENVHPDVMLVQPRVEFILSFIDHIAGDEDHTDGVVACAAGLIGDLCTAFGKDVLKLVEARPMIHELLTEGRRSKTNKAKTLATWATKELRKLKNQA
T2 sequence (P04406 whole entry): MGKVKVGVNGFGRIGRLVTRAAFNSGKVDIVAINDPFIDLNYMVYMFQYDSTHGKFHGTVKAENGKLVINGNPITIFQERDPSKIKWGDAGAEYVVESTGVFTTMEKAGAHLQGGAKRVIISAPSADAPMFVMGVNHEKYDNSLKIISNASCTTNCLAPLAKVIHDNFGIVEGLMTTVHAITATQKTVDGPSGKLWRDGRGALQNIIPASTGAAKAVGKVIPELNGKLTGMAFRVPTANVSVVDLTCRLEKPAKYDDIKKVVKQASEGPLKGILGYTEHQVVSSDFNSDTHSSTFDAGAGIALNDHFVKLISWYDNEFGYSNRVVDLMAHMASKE

Consider VQRKRQKLMP (HOMO SAPIENS) [N50], for which the “interaction with importin beta” value in [1] was “did not react”. Besides, in data set [2], the “interaction with importins alpha 1, 4, and 5” value (“interaction … and 5” for short) was “maintain reactivity”.
For `CSCC[C@@H]1NC(=O)[C@H](CC(C)C)NC(=O)[C@H](CCCCN)NC(=O)[C@H](CCC(N)=O)NC(=O)[C@H](CCCNC(=N)N)NC(=O)[C@H](CCCCN)NC(=O)[C@H](CCCNC(=N)N)NC(=O)[C@H](CCC(N)=O)NC(=O)[C@H](C(C)C)NC(=O)[C@H](Cc2ccc(O)cc2)NC(=O)[C@@H](NC(=O)[C@@H]2CCCN2C(=O)[C@H](C)NC(=O)[C@H](CC(C)C)NC(=O)[C@H](CC(C)C)NC(=O)[C@H](C)NC(=O)[C@H](CC(C)C)NC(=O)[C@H](CC(C)C)NC(=O)[C@@H](NC(=O)[C@H](C)NC(=O)[C@@H]2CCCN2C(=O)[C@H](CC(C)C)NC(=O)[C@H](CC(C)C)NC(=O)[C@H](C)NC(=O)[C@@H](NC(=O)[C@H](C)NC(=O)[C@H](C)N)C(C)C)C(C)C)CSSC[C@@H](C(=O)O)NC(=O)[C@@H]2CCCN2C1=O` [cSN50] (H-AAVALLPAVLLALLAPCYVQRKRQKLMPC-OH; disulfide 17-29; N-terminus and C-terminus assumed), in data set [3] (depending on the method of synthesis and purification, read-out: soluble at levels), the solubility was in the range of 2 to 40 mg/mL (≈ 0.635 to 12.7 mM).
With “CVQRKRQKLMPC (disulfide 1-12 (inferred)) [cN50.1]”, the “interaction with importin beta” value in data set [1] is given as “did not react”. Besides, the “interaction … and 5” value in [2] is “maintain reactivity”. For the same molecule, the “liver alanine and aspartate transaminases (ALT and AST) in plasma” value in data set [4] (8 weeks) is “elevated levels”. Besides, in data set [4] (control peptide, plasma cholesterol and triglycerides), the “results vs mice given saline” value is “not different”. The “experimental endpoints (hypercholesterolemia) vs saline alone” value in data set [4] (non-cell penetrating control peptide in saline) is reported as “did not differ significantly”.
With “AAVALLPAVLLALLAPCVQRDEQKLMPC (disulfide 17-28 (inferred)) [cSN50.1 Beta]”, the “interaction … and 5” value in data set [2] is listed as “did not react”.
On to AAVALLPAVLLALLAPVQRKRQKLMP [SN50], for which the “interaction with importin beta” value in data set [5] and in data set [1] was “interacted” in each case. Moreover, the “interaction … and 5” value in data set [2] is “interacted”. In data set [6], the “interaction with control protein GAPDH” value is given as “not with the control protein GAPDH”. Besides, the “inhibition of biotinylated SN50 binding to importin beta” value in [7] is “competitively inhibited”. The “interaction with control cytoplasmic marker protein GAPDH” value in [8] is “not with the control cytoplasmic marker protein GAPDH”.
Take `CSCC[C@@H]1NC(=O)[C@H](CC(C)C)NC(=O)[C@H](CCCCN)NC(=O)[C@H](CCC(N)=O)NC(=O)[C@H](CCCNC(=N)N)NC(=O)[C@H](CCCCN)NC(=O)[C@H](CCCNC(=N)N)NC(=O)[C@H](CCC(N)=O)NC(=O)[C@H](C(C)C)NC(=O)[C@@H](NC(=O)[C@@H]2CCCN2C(=O)[C@H](C)NC(=O)[C@H](CC(C)C)NC(=O)[C@H](CC(C)C)NC(=O)[C@H](C)NC(=O)[C@H](CC(C)C)NC(=O)[C@H](CC(C)C)NC(=O)[C@@H](NC(=O)[C@H](C)NC(=O)[C@@H]2CCCN2C(=O)[C@H](CC(C)C)NC(=O)[C@H](CC(C)C)NC(=O)[C@H](C)NC(=O)[C@@H](NC(=O)[C@H](C)NC(=O)[C@H](C)N)C(C)C)C(C)C)CSSC[C@@H](C(=O)O)NC(=O)[C@@H]2CCCN2C1=O` [cSN50.1] (H-AAVALLPAVLLALLAPCVQRKRQKLMPC-OH; disulfide 17-28; N-terminus and C-terminus assumed): the “signs of infection or illness” value in data set [9] (8 weeks of treatment) is “no overt signs of infection or illness”. In [9] (mouse, in vivo), the “blood cell populations and blood chemistries” value was “did not reveal any significant changes”; the “general susceptibility to environmental pathogens” value was “did not cause any apparent signs”. Further, in data set [3] (read-out: solubility), the solubility is 100 mg/mL (≈ 33.5 mM).
AVLLALLAP (HOMO SAPIENS) [SSHR-2]: the “interaction with importin beta” value in [1] is “importin beta-binding function”.
